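48-hour exposure; five concentrations; linearly interpolated endpoints. Abbreviation: GI50, concentration required for 50% inhibition of growth.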 Active and inactive are the calls of the source. Rule as the data show it: active = GI50 up to about 1.1 µM and inactive = higher.
How the values were obtained:
Assay in all cases: growth of human tumour cells (NCI), 48 h
[1] = test system: EKVX
[2] = test system: DMS-273
[3] = test system: COLO 205
[4] = test system: HCT-116
[5] = test system: HT-29
[6] = test system: SF-295
[7] = test system: TK-10
[8] = test system: ACHN
[9] = test system: A549
[10] = test system: K562
[11] = test system: SR
[12] = test system: 786-0
[13] = test system: SF-539
[14] = test system: KM-20L2
[15] = test system: NCI-H226
[16] = test system: HOP-18
[17] = test system: RPMI-8226
[18] = test system: OVCAR-4
[19] = test system: CAKI-1
[20] = test system: MOLT-4
[21] = test system: IGROV-1
[22] = test system: KM12
[23] = test system: RXF 393
[24] = test system: UACC-62
[25] = test system: UACC-257
[26] = test system: M19-MEL
[27] = test system: HOP-92
[28] = test system: NCI-H23
[29] = test system: OVCAR-3
[30] = test system: SF-268
[31] = test system: HOP-62
[32] = test system: Malme-3M
[33] = test system: SNB-75
[34] = test system: CCRF-CEM
[35] = test system: DMS-114
[36] = test system: SN12C
[37] = test system: HL-60
[38] = test system: LXFL 529
[39] = test system: HCC 2998
[40] = test system: M14
[41] = test system: SW-620
[42] = test system: OVCAR-8
[43] = test system: SNB-19
[44] = test system: U-251
[45] = test system: NCI-H522
[46] = test system: DLD-1
[47] = test system: HCT-15
[48] = test system: SK-MEL-2
[49] = test system: UO-31
[50] = test system: XF498
[51] = test system: NCI-H460
[52] = test system: SK-MEL-28
[53] = test system: MCF7
[54] = test system: NCI/ADR-RES
[55] = test system: DU-145
[56] = test system: A498
[57] = test system: SK-OV-3
[58] = test system: Hs-578T
[59] = test system: MDA-N
[60] = test system: BT-549
[61] = test system: SNB-78
[62] = test system: MDA-MB-231
[63] = test system: SK-MEL-5
[64] = test system: LOX IMVI
[65] = test system: MDA-MB-435
[66] = test system: OVCAR-5
[67] = test system: T47D

Measured: GI50

CC(=O)NC(CCCNC(=O)N(CCCl)N=O)C(=O)NCc1ccccc1 (configuration not stated)
inactive: [1] > 100 µM | [2] > 100 µM | [3] > 100 µM | [4] > 100 µM | [5] > 100 µM | [6] 27.9 µM | [7] > 100 µM | [8] 38.9 µM | [9] 69.2 µM | [10] > 100 µM | [11] 35.6 µM | [12] 6.87 µM | [13] 11.7 µM | [14] > 100 µM | [15] > 100 µM | [16] > 100 µM | [17] > 100 µM | [18] > 100 µM | [19] > 100 µM | [20] 38.5 µM | [21] 59.7 µM | [22] > 100 µM | [23] > 100 µM | [24] > 100 µM | [25] > 100 µM | [26] > 100 µM | [27] > 100 µM | [28] > 100 µM | [29] > 100 µM | [30] 6.53 µM | [31] 40 µM | [32] > 100 µM | [33] 9.71 µM | [34] 46.3 µM | [35] > 100 µM | [36] 91.4 µM | [37] 24 µM | [38] > 100 µM | [39] > 100 µM | [40] > 100 µM | [41] > 100 µM | [42] > 100 µM | [43] 22.6 µM | [44] 27.6 µM | [45] > 100 µM | [46] 58.6 µM | [48] > 100 µM | [49] > 100 µM | [50] > 100 µM | [51] 2.32 µM | [52] > 100 µM
> 100 µM: [47]

O=C(CC1C(=O)Nc2ccccc2[S+]1[O-])Nc1cccc(Cl)c1 (configuration not stated)
inactive: [53] 13.8 µM | [1] > 47.4 µM | [54] 18.5 µM | [3] > 41 µM | [4] 31.6 µM | [5] > 35.6 µM | [6] 41.9 µM | [55] 32.5 µM | [7] > 58.9 µM | [8] 33.7 µM | [9] > 100 µM | [10] 6.61 µM | [11] 4.93 µM | [12] 37.2 µM | [13] 18.6 µM | [14] > 100 µM | [56] 13.2 µM | [15] 44.3 µM | [16] > 100 µM | [17] 7.98 µM | [18] > 53.8 µM | [57] 31.3 µM | [19] 20.7 µM | [20] > 37.7 µM | [21] > 37.5 µM | [22] > 57.9 µM | [23] 20.9 µM | [24] > 43.1 µM | [25] > 50.5 µM | [26] > 100 µM | [58] 38.1 µM | [27] 19.5 µM | [28] > 44.9 µM | [29] 32.7 µM | [30] 55.1 µM | [31] 25.5 µM | [59] 18.6 µM | [60] 26.3 µM | [32] > 55.6 µM | [33] 16.4 µM | [34] > 35.4 µM | [35] 47.1 µM | [36] > 51.9 µM | [37] > 33.5 µM | [38] 91.8 µM | [61] 40.9 µM | [39] > 47.5 µM | [40] > 42.4 µM | [41] > 48 µM | [42] 33 µM | [62] 7.31 µM | [43] 30.5 µM | [44] 33.7 µM | [63] > 30.9 µM | [46] > 100 µM | [64] > 100 µM | [65] 27.9 µM | [66] > 62.7 µM | [48] 55.5 µM | [67] 11.2 µM | [49] 25.1 µM | [50] > 100 µM | [51] > 44.6 µM | [52] > 57.7 µM
27.1 µM: [47]

Reference: ChEMBL document CHEMBL1201862, “PubChem BioAssay data set” (2004)
